# Measurements reported in patent US20230295118A1 (EnhancedBio Inc., priority 2022, published 2023).
# Read-outs that look alike come from different tables or passages of the source.
# How the values were obtained:
# Format in all cases: cell-based
# [1] = test system: mantle cell lymphoma cell (Mino or JeKo-1); test: Antiproliferative effect, MTS cell viability assay
# Method: Antiproliferative effect of the exemplary compounds was assessed in B-cell malignancy models.
# To assess the effect of the exemplary compounds on cell viability in B-cell malignancy models by degradation of CDK4/6 proteins, Mino cells were treated with varying concentrations of exemplary compounds (0, 0.0001, 0.001, 0.01, 0.1, 1 μM) or positive control (palbociclib and abemaciclib). Under these conditions, cell viability was determined by an MTS assay. Cytotoxicity was assayed by the determination of reduced tetrazolium (formazan) created by metabolically active cells as detected at 490 nanometers (nm) absorbance using a microplate reader (BMG Labtech, Cary, NC, USA).
# The exemplary compounds attenuated the viability of Mino cells in a concentration-dependent manner at 72 h post treatment. Results are shown in Table 1 and FIGS. 2-15 for each exemplary compound.
# CDK4 = target: T1, CDK4 (Homo sapiens, UniProt P11802); test: CDK4 degradation (DC50, Dmax)
# T1 construct: endogenous in cells
# T1 sequence (P11802 whole entry): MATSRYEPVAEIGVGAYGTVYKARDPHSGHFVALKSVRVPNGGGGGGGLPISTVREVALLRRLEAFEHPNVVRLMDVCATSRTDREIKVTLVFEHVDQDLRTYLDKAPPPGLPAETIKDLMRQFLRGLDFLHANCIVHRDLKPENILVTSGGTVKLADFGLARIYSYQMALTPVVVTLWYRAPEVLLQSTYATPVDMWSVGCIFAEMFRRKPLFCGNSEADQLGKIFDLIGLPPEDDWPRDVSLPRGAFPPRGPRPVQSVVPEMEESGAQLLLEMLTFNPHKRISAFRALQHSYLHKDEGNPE
# CDK6 = target: T2, CDK6 (Homo sapiens, UniProt Q00534); test: CDK6 degradation (DC50, Dmax)
# T2 construct: endogenous in cells
# T2 sequence (Q00534 whole entry): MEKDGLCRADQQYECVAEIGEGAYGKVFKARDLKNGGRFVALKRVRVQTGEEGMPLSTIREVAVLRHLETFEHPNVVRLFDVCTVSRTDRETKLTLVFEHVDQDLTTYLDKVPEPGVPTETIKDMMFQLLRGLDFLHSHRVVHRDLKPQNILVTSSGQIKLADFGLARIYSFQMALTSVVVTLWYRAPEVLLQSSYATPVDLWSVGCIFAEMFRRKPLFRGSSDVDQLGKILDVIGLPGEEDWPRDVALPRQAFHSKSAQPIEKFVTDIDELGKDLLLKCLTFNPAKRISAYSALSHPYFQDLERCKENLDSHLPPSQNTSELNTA
# [2] = 72 h, mantle cell lymphoma cell (Mino or JeKo-1), MTS assay, read-out: IC50 (anti-proliferation)
# [3] = mantle cell lymphoma cell (Mino or JeKo-1); MTS assay, 72 h; read-out: IC50 (anti-proliferation)
"IC50 [1, 2] [nM]",DC50 (CDK4) [nM],Dmax (CDK4) [%],DC50 (CDK6) [nM],Dmax (CDK6) [%],SMILES,"IC50 [1, 3] [nM]"
50 to 200,50 to 200,> 60,50 to 200,> 60,"CC(=O)c1c(C)c2cnc(Nc3ccc(N4CCN(CC5CCN(C(=O)N6CCN(c7ccc8c(c7)CN(C7CCC(=O)NC7=O)C8=O)CC6)CC5)CC4)cn3)nc2n(C2CCCC2)c1=O (stereo not drawn) [Compound 32, 3-(5-(4-(4-((4-(6-((6-acetyl-8-cyclopentyl-5-methyl-7-oxo-7,8-dihydropyrido[2,3-d]pyrimidin-2-yl)amino)pyridin-3-yl)piperazin-1 - yl)methyl)piperidine-1-carbonyl)piperazin-1-yl)-1-oxoisoindolin-2-yl)piperidine-2,6-dione]",–
50 to 200,> 200,> 60,> 200,> 50,"CC(=O)c1c(C)c2cnc(Nc3ccc(N4CCN(CC5CCN(C(=O)N6CCC(c7ccc8c(c7)C(=O)N(C7CCC(=O)NC7=O)C8=O)CC6)CC5)CC4)cn3)nc2n(C2CCCC2)c1=O (stereo not drawn) [Compound 33, 5-(1-(4-((4-(6-((6-acetyl-8-cyclopentyl-5-methyl-7-oxo-7,8-dihydropyrido[2,3-d]pyrimidin-2-yl)amino)pyridin-3-yl)piperazin-1-yl)methyl)piperidine-1-carbonyl)piperidin-4-yl)-2-(2,6-dioxopiperidin-3-yl)isoindoline-1,3-dione]",–
> 200,> 200,> 50,> 200,> 50,CC(=O)c1c(C)c2cnc(Nc3ccc(N4CCN(CC5CCN(C(=O)N6CCC(c7ccc8c(c7)CN(C7CCC(=O)NC7=O)C8=O)CC6)CC5)CC4)cn3)nc2n(C2CCCC2)c1=O (stereo not drawn) [Compound 34],–
> 200,> 200,> 50,> 200,> 50,"CC(=O)c1c(C)c2cnc(Nc3ccc(N4CCN(C5CCN(C(=O)N6CCC(c7ccc8c(c7)C(=O)N(C7CCC(=O)NC7=O)C8=O)CC6)CC5)CC4)cn3)nc2n(C2CCCC2)c1=O (stereo not drawn) [Compound 37, 5-(1-(4-(4-(6-((6-acetyl-8-cyclopentyl-5-methyl-7-oxo-7,8-dihydropyrido[2,3-d]pyrimidin-2-yl)amino)pyridin-3-yl)piperazin-1-yl)piperidine-1-carbonyl)piperidin-4-yl)-2-(2,6-dioxopiperidin-3-yl)isoindoline-1,3-dione]",–
50 to 200,50 to 200,> 80,50 to 200,> 80,"CC(=O)c1c(C)c2cnc(Nc3ccc(N4CCN(CC5CCN(C(=O)Nc6ccc7c(c6)CN(C6CCC(=O)NC6=O)C7=O)CC5)CC4)cn3)nc2n(C2CCCC2)c1=O (stereo not drawn) [Compound 42, 4-((4-(6-((6-acetyl-8-cyclopentyl-5-methyl-7-oxo-7,8-dihydropyrido[2,3-d]pyrimidin-2-yl)amino)pyridin-3-yl)piperazin-1-yl)methyl)-N-(2-(2,6-dioxopiperidin-3-yl)-1-oxoisoindolin-5-yl)piperidine-1-carboxamide]",–
50 to 200,50 to 200,> 60,50 to 200,> 60,CC(=O)c1c(C)c2cnc(Nc3ccc(N4CCN(CCN5CCN(C(=O)Nc6ccc7c(c6)CN(C6CCC(=O)NC6=O)C7=O)CC5)CC4)cn3)nc2n(C2CCCC2)c1=O (stereo not drawn) [Compound 44],–

# Further lines, the molecule ahead of its results:
SMILES,"IC50 [1, 2] [nM]",DC50 (CDK4) [nM],Dmax (CDK4) [%],DC50 (CDK6) [nM],Dmax (CDK6) [%],"IC50 [1, 3] [nM]"
"CC(=O)c1c(C)c2cnc(Nc3ccc(N4CCN(C(=O)N5CCC(CCN6CCC(c7ccc8c(c7)CN(C7CCC(=O)NC7=O)C8=O)CC6)CC5)CC4)cn3)nc2n(C2CCCC2)c1=O (stereo not drawn) [Compound 30, 3-(5-(1-(2-(1-(4-(6-((6-acetyl-8-cyclopentyl-5-methyl-7-oxo-7,8-dihydropyrido[2,3-d]pyrimidin-2-yl)amino)pyridin-3-yl)piperazine-1-carbonyl)piperidin-4-yl)ethyl)piperidin-4-yl)-1-oxoisoindolin-2-yl)piperidine-2,6-dione]",> 200,> 200,> 50,> 200,> 50,–
"CC(=O)c1c(C)c2cnc(Nc3ccc(N4CCN(CC5CCN(C(=O)N6CCN(c7ccc8c(c7)C(=O)N(C7CCC(=O)NC7=O)C8=O)CC6)CC5)CC4)cn3)nc2n(C2CCCC2)c1=O (stereo not drawn) [Compound 31, 5-(4-(4-((4-(6-((6-acetyl-8-cyclopentyl-5-methyl-7-oxo-7,8-dihydropyrido[2,3-d]pyrimidin-2-yl)amino)pyridin-3-yl)piperazin-1-yl)methyl)piperidine-1-carbonyl)piperazin-1-yl)-2-(2,6-dioxopiperidin-3-yl)isoindoline-1,3-dione]",–,50 to 200,> 80,50 to 200,> 80,< 50
"CC(=O)c1c(C)c2cnc(Nc3ccc(N4CCN(C5CCN(C(=O)N6CCN(c7ccc8c(c7)C(=O)N(C7CCC(=O)NC7=O)C8=O)CC6)CC5)CC4)cn3)nc2n(C2CCCC2)c1=O (stereo not drawn) [Compound 35, 5-(4-(4-(4-(6-((6-acetyl-8-cyclopentyl-5-methyl-7-oxo-7,8-dihydropyrido[2,3-d]pyrimidin-2-yl)amino)pyridin-3-yl)piperazin-1-yl)piperidine-1-carbonyl)piperazin-1-yl)-2-(2,6-dioxopiperidin-3-yl)isoindoline-1,3-dione]",–,50 to 200,> 60,> 200,> 60,50 to 200
"CC(=O)c1c(C)c2cnc(Nc3ccc(N4CCN(C5CCN(C(=O)N6CCN(c7ccc8c(c7)CN(C7CCC(=O)NC7=O)C8=O)CC6)CC5)CC4)cn3)nc2n(C2CCCC2)c1=O (stereo not drawn) [Compound 36, 3-(5-(4-(4-(4-(6-((6-acetyl-8-cyclopentyl-5-methyl-7-oxo-7,8-dihydropyrido[2,3-d]pyrimidin-2-yl)amino)pyridin-3-yl)piperazin-1-yl)piperidine-1-carbonyl)piperazin-1-yl)-1-oxoisoindolin-2-yl)piperidine-2,6-dione]",50 to 200,> 200,> 60,> 200,> 60,–
"CC(=O)c1c(C)c2cnc(Nc3ccc(N4CCN(C5CCN(C(=O)N6CCC(c7ccc8c(c7)CN(C7CCC(=O)NC7=O)C8=O)CC6)CC5)CC4)cn3)nc2n(C2CCCC2)c1=O (stereo not drawn) [Compound 38, 3-(5-(1-(4-(4-(6-((6-acetyl-8-cyclopentyl-5-methyl-7-oxo-7,8-dihydropyrido[2,3-d]pyrimidin-2-yl)amino)pyridin-3-yl)piperazin-1-yl)piperidine-1-carbonyl)piperidin-4-yl)-1-oxoisoindolin-2-yl)piperidine-2,6-dione]",> 200,> 200,> 50,> 200,> 50,–
"CC(=O)c1c(C)c2cnc(Nc3ccc(N4CCN(C5CCN(C(=O)Nc6ccc7c(c6)C(=O)N(C6CCC(=O)NC6=O)C7=O)CC5)CC4)cn3)nc2n(C2CCCC2)c1=O (stereo not drawn) [Compound 39, 4-(4-(6-((6-acetyl-8-cyclopentyl-5-methyl-7-oxo-7,8-dihydropyrido[2,3-d]pyrimidin-2-yl)amino)pyridin-3-yl)piperazin-1-yl)-N-(2-(2,6-dioxopiperidin-3-yl)-1,3-dioxoisoindolin-5-yl)piperidine-1-carboxamide]",< 50,50 to 200,> 80,50 to 200,> 80,–
"CC(=O)c1c(C)c2cnc(Nc3ccc(N4CCN(C5CCN(C(=O)Nc6ccc7c(c6)CN(C6CCC(=O)NC6=O)C7=O)CC5)CC4)cn3)nc2n(C2CCCC2)c1=O (stereo not drawn) [Compound 40, 4-(4-(6-((6-acetyl-8-cyclopentyl-5-methyl-7-oxo-7,8-dibydropyrido[2,3-d]pyrimidin-2-yl)amino)pyridin-3-yl)piperazin-1-yl)-N-(2-(2,6-dioxopiperidin-3-yl)-1-oxoisoindolin-5-yl)piperidine-1-carboxamide]",< 50,50 to 200,> 60,50 to 200,> 80,–
"CC(=O)c1c(C)c2cnc(Nc3ccc(N4CCN(CC5CCN(C(=O)Nc6ccc7c(c6)C(=O)N(C6CCC(=O)NC6=O)C7=O)CC5)CC4)cn3)nc2n(C2CCCC2)c1=O (stereo not drawn) [Compound 41, 4-((4-(6-((6-acetyl-8-cyclopentyl-5-methyl-7-oxo-7,8-dihydropyrido[2,3-d]pyrimidin-2-yl)amino)pyridin-3-yl)piperazin-1-yl)methyl)-N-(2-(2,6-dioxopiperidin-3-yl)-1,3-dioxoisoindolin-5-yl)piperidine-1-carboxamide]",< 50,< 50,> 80,50 to 200,> 80,–
"CC(=O)c1c(C)c2cnc(Nc3ccc(N4CCN(CCN5CCN(C(=O)Nc6ccc7c(c6)C(=O)N(C6CCC(=O)NC6=O)C7=O)CC5)CC4)cn3)nc2n(C2CCCC2)c1=O (stereo not drawn) [Compound 43, 4-(2-(4-(6-((6-acetyl-8-cyclopentyl-5-methyl-7-oxo-7,8-dihydropyrido[2,3-d]pyrimidin-2-yl)amino)pyridin-3-yl)piperazin-1-yl)ethyl)-N-(2-(2,6-dioxopiperidin-3-yl)-1,3-dioxoisoindolin-5-yl)piperazine-1-carboxamide]",50 to 200,50 to 200,> 60,50 to 200,> 60,–
